Laboratory results: paper PMC4032177 (Journal of medicinal chemistry, 2013)

Columns and labels:
ERK1 = ERK1 (Homo sapiens, UniProt P27361); assay: Kinase specificity profiling; type: binding
DLK [1] = biological target: T1, DLK (Homo sapiens, UniProt Q12852); assay: DLK kinase inhibition; type: biochemical
T1 sequence (Q12852 1-859): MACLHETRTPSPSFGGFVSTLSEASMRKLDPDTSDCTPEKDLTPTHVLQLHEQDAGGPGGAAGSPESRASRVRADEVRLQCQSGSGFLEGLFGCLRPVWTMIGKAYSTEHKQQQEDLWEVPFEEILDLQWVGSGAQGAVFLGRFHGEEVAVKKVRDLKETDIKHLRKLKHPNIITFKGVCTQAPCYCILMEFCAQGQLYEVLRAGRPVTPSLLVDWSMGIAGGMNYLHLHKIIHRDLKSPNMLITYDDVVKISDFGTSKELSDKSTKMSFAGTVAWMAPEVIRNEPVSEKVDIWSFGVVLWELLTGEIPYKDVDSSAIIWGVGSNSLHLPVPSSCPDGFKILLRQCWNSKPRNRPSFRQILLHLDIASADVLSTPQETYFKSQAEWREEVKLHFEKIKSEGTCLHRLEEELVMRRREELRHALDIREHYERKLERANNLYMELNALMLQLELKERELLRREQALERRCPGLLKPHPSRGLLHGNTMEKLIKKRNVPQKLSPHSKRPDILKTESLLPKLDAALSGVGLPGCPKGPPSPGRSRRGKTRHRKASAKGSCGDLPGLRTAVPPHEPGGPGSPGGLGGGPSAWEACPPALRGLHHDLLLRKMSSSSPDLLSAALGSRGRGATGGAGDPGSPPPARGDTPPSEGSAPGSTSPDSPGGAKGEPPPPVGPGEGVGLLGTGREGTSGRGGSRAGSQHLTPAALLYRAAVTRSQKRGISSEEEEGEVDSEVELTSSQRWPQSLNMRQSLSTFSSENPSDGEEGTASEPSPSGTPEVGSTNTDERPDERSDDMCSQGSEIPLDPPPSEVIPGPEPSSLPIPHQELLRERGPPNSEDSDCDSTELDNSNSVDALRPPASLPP

[2] = test system: phosphorylated JNK (pJNK) in brain; assay: Inhibition of JNK phosphorylation in HIV-Tat treated mice; type: in vivo, C57BL/6 mice; details: 10 mg/kg i.p. every twelve hours
DLK [3] = biological target: T1, DLK; assay: DiscoverRx ScanMax kinome binding scan
EGFR = EGFR (Homo sapiens, UniProt P00533); assay: Kinase specificity profiling; type: binding
Sequence of EGFR (P00533 25-1210): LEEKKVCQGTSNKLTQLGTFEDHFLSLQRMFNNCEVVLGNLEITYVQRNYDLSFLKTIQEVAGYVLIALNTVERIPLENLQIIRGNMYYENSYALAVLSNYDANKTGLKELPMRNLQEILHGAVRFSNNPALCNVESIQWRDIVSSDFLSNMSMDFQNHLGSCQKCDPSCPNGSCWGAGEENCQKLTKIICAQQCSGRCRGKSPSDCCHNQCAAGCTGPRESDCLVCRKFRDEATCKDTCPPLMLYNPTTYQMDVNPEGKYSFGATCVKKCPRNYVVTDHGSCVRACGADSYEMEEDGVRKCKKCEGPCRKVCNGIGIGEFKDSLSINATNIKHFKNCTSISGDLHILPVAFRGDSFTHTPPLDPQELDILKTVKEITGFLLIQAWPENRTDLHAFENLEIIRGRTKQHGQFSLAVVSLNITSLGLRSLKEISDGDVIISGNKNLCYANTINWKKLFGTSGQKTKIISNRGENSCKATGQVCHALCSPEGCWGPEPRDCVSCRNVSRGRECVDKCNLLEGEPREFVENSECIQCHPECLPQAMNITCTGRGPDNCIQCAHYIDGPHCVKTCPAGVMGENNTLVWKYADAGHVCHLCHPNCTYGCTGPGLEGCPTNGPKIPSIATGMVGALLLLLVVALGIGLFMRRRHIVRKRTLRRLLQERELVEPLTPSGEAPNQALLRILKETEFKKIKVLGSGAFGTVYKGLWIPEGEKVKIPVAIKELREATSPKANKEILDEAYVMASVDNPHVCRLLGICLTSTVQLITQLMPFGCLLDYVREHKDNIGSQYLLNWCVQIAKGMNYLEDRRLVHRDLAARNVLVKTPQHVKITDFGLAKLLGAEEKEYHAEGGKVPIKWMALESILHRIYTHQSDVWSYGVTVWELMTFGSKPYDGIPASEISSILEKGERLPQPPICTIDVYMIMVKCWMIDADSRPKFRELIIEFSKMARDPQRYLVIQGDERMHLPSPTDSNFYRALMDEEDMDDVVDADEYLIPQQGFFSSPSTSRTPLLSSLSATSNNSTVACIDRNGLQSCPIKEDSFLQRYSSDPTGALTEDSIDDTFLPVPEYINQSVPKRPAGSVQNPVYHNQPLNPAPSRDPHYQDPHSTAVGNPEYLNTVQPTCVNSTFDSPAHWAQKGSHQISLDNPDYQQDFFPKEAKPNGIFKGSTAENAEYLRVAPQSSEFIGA

BRAF = BRAF (Homo sapiens, UniProt P15056); assay: Kinase specificity profiling; type: binding
AKT3 = AKT3 (Homo sapiens, UniProt Q9Y243); assay: Kinase specificity profiling; type: binding
Sequence of AKT3 (Q9Y243 whole entry): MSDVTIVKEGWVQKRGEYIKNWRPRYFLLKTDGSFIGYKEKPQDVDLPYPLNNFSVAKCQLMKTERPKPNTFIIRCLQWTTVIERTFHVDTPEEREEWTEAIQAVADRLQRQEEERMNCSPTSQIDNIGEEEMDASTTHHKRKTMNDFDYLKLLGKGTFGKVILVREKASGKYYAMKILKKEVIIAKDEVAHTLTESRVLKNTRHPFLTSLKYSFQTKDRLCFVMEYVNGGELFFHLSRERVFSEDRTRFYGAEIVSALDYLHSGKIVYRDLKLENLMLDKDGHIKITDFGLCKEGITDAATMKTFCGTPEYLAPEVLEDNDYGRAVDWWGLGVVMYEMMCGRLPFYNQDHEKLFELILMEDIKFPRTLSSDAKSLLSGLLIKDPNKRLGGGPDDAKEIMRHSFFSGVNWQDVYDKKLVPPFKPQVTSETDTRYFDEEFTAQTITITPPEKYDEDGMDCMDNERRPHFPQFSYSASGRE

CDK11 = CDK11 (Homo sapiens, UniProt Q9BWU1); assay: DiscoverRx ScanMax kinome binding scan; details: read-out: CDK11 % inhibition (ScanMax)
Sequence of CDK11 (Q9BWU1 whole entry): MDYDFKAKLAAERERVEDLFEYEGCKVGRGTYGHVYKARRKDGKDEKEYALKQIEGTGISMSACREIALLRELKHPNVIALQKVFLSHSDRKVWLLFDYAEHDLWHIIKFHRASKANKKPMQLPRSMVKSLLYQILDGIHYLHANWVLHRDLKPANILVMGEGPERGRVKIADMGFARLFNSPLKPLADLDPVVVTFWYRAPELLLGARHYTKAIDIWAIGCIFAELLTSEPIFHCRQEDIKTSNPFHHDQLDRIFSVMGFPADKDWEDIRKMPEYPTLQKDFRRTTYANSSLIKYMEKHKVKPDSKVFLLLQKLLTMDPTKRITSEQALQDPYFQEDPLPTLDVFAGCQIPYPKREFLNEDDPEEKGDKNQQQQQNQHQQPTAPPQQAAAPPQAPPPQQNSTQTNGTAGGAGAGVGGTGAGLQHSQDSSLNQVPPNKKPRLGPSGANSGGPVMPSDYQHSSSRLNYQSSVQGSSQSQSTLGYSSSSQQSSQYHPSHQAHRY

AKT1 = AKT1 (Homo sapiens, UniProt P31749); assay: Kinase specificity profiling; type: binding
Sequence of AKT1 (P31749 whole entry): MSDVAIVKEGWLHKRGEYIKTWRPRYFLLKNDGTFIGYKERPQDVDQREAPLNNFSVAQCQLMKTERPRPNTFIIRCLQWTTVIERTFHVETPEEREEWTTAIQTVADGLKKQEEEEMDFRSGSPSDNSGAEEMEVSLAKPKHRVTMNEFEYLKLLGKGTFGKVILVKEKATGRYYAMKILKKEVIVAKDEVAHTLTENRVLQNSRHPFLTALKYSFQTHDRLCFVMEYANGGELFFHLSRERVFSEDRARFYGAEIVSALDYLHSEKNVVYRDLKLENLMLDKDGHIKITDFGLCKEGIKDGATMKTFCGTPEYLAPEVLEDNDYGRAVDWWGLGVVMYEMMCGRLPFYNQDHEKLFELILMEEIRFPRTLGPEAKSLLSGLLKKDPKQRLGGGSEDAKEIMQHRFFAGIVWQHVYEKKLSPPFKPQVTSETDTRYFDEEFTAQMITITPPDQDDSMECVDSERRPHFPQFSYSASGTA

AKT2 = AKT2 (Homo sapiens, UniProt P31751); assay: Kinase specificity profiling; type: binding
Sequence of AKT2 (P31751 whole entry): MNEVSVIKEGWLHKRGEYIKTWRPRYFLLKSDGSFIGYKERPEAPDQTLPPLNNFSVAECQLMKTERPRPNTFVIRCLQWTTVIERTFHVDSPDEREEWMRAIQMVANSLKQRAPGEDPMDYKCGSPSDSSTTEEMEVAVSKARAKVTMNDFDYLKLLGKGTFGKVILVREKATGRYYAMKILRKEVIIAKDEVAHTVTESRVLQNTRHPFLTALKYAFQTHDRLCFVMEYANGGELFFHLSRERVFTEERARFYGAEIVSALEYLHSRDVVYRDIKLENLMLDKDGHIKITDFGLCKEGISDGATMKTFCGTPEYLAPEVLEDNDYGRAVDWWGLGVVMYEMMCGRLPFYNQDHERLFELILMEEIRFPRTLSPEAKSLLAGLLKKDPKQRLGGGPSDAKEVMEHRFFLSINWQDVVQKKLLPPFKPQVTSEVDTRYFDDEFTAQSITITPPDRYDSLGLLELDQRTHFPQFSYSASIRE

MLK3 = MLK3 (Homo sapiens, UniProt Q16584); assay: Radiometric MLK3 kinase inhibition assay; type: biochemical
Sequence of MLK3 (Q16584 whole entry): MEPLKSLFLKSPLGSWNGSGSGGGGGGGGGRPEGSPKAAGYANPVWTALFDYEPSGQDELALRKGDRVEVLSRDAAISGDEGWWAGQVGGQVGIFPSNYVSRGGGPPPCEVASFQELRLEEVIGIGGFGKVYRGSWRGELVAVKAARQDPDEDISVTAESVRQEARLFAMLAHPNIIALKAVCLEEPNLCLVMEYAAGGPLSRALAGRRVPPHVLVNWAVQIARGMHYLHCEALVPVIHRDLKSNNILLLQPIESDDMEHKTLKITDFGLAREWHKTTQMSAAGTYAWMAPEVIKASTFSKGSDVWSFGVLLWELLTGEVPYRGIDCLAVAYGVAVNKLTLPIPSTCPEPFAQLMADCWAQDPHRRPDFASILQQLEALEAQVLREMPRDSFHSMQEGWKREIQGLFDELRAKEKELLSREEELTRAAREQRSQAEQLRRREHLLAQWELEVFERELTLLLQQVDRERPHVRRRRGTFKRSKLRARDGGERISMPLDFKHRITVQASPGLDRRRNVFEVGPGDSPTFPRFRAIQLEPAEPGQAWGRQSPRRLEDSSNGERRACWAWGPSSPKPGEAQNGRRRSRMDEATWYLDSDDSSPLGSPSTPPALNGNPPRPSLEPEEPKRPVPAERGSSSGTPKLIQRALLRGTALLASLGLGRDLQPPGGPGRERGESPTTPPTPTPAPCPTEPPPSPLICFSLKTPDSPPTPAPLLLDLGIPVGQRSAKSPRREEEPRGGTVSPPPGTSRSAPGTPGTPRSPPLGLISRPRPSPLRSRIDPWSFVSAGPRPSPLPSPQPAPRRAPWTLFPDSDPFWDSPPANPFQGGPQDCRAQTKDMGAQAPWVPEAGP

ERK2 = ERK2 (Homo sapiens, UniProt P28482); assay: Kinase specificity profiling; type: binding
Sequence of ERK2 (P28482 whole entry): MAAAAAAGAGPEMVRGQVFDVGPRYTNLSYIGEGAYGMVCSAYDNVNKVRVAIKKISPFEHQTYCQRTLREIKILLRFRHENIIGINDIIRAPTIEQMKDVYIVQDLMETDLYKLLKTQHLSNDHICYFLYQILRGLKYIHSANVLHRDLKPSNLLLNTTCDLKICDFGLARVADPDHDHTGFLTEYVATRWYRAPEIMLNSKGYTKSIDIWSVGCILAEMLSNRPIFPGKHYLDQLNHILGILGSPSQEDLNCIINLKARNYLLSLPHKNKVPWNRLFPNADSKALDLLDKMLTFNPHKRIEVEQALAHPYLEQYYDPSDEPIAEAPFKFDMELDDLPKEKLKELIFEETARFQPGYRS

LRRK2 = LRRK2 (Homo sapiens, UniProt Q5S007); assay: DiscoverRx ScanMax kinome binding scan; details: read-out: LRRK2 % inhibition of binding (ScanMax), 1 μM

Sequence of ERK1 (P27361 whole entry): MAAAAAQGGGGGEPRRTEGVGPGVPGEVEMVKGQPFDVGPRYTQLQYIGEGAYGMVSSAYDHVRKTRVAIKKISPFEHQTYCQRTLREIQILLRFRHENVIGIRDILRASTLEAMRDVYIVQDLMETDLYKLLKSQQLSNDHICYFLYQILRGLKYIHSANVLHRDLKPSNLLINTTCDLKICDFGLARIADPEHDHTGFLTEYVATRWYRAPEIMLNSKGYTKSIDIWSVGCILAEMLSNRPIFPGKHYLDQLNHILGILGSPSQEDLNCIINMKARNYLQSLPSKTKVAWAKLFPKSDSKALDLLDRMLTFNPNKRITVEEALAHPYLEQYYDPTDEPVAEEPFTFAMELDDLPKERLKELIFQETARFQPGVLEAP

Q: Which “Activity against ERK1” value (ERK1) does the source give for `CN1CCN(Cc2ccc(-c3cnc4[nH]cc(-c5ccc6[nH]ccc6c5)c4c3)cc2)CC1` [Compound 1, 3-(1H-Indol-5-yl)-5-(4-((4-methylpiperazin-1-yl)methyl)phenyl)-1H-pyrrolo[2,3-b]pyridine] here?
A: The value was “essentially inactive”.

Q: And the IC50 (DLK [1])?
A: Its IC50 is 150 nM.

Q: And the “pJNK levels in saline-treated animals” value [2]?
A: Its value is “no effect”.

Q: What about the Kd (DLK [3]) of the same compound?
A: The Kd was 70 nM.

Q: And the “Activity against EGFR” value (EGFR)?
A: The value was “essentially inactive”.

Q: What about the “Activity against BRAF” value (BRAF) of the same compound?
A: The value was “essentially inactive”.

Q: What about the “Activity against AKT3” value (AKT3) of the same compound?
A: The value was “essentially inactive”.

Q: And the inhibition at 1 µM (CDK11)?
A: The inhibition at 1 µM was greater than 90%.

Q: What about the “Activity against AKT1” value (AKT1) of the same compound?
A: The value was “essentially inactive”.

Q: What about the “Activity against AKT2” value (AKT2) of the same compound?
A: Its value is “essentially inactive”.

Q: What about the Ki (MLK3) of the same compound?
A: The Ki was roughly 10 nM.

Q: And the “Activity against ERK2” value (ERK2)?
A: The value was “essentially inactive”.

Q: Which inhibition at 1 µM (LRRK2) does the source give for `CCSCc1ccc2c(c1)c1c3c(c4c5cc(CSCC)ccc5n5c4c1n2[C@H]1C[C@](O)(C(=O)OC)[C@]5(C)O1)CNC3=O` [Compound 2, (9S,10R,12R)-9,12-Epoxy-1H-diindolo[1,2,3-fg:3′,2′,1′-kl]pyrrolo[3,4-i][1,6]benzodiazocine-10-carboxylic acid, 5,16-bis[(ethylthio)methyl]-2,3,9,10,11,12-hexahydro-10-hydroxy-9-methyl-1-oxo methyl ester] here?
A: Its inhibition at 1 µM is greater than 99%.

Q: With `COc1cc(-c2cnc3[nH]c(=O)n(-c4ccc5[nH]ccc5c4)c3n2)cc(OC)c1OC` [Compound 7, 1-(1H-Indol-5-yl)-6-(3,4,5-trimethoxyphenyl)-1H-imidazo[4,5-b]pyrazin-2(3H)-one] as the compound, how does the IC50 (MLK3) read?
A: The IC50 was 40 to 120 nM.
